Data from patent publication US8415475B2, “Antibacterial quinoline derivatives” (Janssen Pharmaceutica N.V., priority 2006, dated 2013).
In brackets after ≈: the same amount, converted by molar mass.

Tests used:
[1] = system: Streptococcus pneumoniae (ATCC6305); test: In-vitro anti-bacterial microtitre plate assay, IC90, S. pneumoniae; format: cell-based; settings: 90% inhibitory concentration for bacterial growth, resazurin fluorescence; for IC90: Streptococcus pneumoniae, ATCC6305, 24 h, read-out: IC90 values SPN 1 6305; for IC90 values SPN 1 6305: 24 hours
Description: (§1) D.3. In-Vitro Method for Testing Compounds for Anti-Bacterial Activity Against Various Non-Mycobacterial Strains The bacteria used in this study were grown overnight in flasks containing 100 ml Mueller-Hinton Broth (Becton Dickinson-cat. no. 275730) in sterile de-ionized water, with shaking, at 37° C. Stocks (0.5 ml/tube) were stored at -70° C. until use. Bacteria titrations were performed in microtiter plates to detect the TCID50, in which the TCID50 represents the dilution that gives rise to bacterial growth in 50% of inoculated cultures. In general, an inoculum level of approximately 100 TCID50 was used for susceptibility testing. Flat-bottom, sterile 96-well plastic microtiter plates were filled with 180 μl of sterile deionized water, supplemented with 0.25% BSA. Subsequently, stock solutions (7.8× final test concentration) of compounds were added in 45 μl volumes in column 2. Serial five-fold dilutions (45 μl in 180 μl) were made directly in the microtiter plates from column 2 to reach column 11. Untreated control samples with (column 1) and without (column 12) inoculum were included in each microtiter plate. Depending on the bacteria type, approximately 10 to 60 CFU per well of bacteria inoculum (100 TCID50), in a volume of 100 μl in 2.8× Mueller-Hinton broth medium, was added to the rows […]. The same volume of broth medium without inoculum was added to column 12 in row A to H. The cultures were incubated at 37° C. for 24 hours under a normal atmosphere (incubator with open air valve and continuous ventilation). At the end of incubation, one day after inoculation, the bacterial growth was quantitated fluorometrically. Therefore resazurin (0.6 mg/ml) was added in a volume of 20 μl to all wells 3 hours after inoculation, and the plates were re-incubated overnight. A change in colour from blue to pink indicated the growth of bacteria. The fluorescence was read in a computer-controlled fluorometer (Cytofluor Biosearch) at an excitation wavelength of 530 nm and an emission wavelength of 590 nm. The % growth inhibition achieved by the compounds was calculated according to standard methods.

[2] = system: Staphylococcus aureus (ATCC29213); test: In-vitro anti-bacterial microtitre plate assay, IC90, S. aureus; format: cell-based; settings: 90% inhibitory concentration for bacterial growth, resazurin fluorescence; for IC90: Staphylococcus aureus, ATCC29213, 24 h, read-out: IC90 values STA 1 B29213; for IC90 values STA 1 B29213: 24 hours
Description: as §1

[3] = system: Enterococcus faecalis (ATCC29212); test: In-vitro anti-bacterial microtitre plate assay, IC90, E. faecalis; format: cell-based; settings: 90% inhibitory concentration for bacterial growth, resazurin fluorescence; for IC90: Enterococcus faecalis, ATCC29212, 24 h, read-out: IC90 values EFA 29212
Description: as §1

M. Smegmatis (ATCC607) = test: In-vitro anti-bacterial activity against strain M. smegmatis ATCC607; format: cell-based; settings: 90% inhibitory concentration for bacterial growth, Alamar Blue fluorescence; for IC90: Mycolicibacterium smegmatis, ATCC607, 48 h, read-out: IC90 values MSM 1 ATCC607; for IC90 values MSM 1 ATCC607: 48 hours
Description: D.2. In-Vitro Method for Testing Compounds for Anti-Bacterial Activity Against Strain M. smegmatis ATCC607. Flat-bottom, sterile 96-well plastic microtiter plates were filled with 180 μl of sterile deionized water, supplemented with 0.25% BSA. Subsequently, stock solutions (7.8× final test concentration) of compounds were added in 45 μl volumes to a series of duplicate wells in column 2 so as to allow evaluation of their effects on bacterial growth. Serial five-fold dilutions (45 μl in 180 μl) were made directly in the microtiter plates from column 2 to 11 using a customised robot system (Zymark Corp., Hopkinton, Mass.). Pipette tips were changed after every 3 dilutions to minimize pipetting errors with high hydrophobic compounds. Untreated control samples with (column 1) and without (column 12) inoculum were included in each microtiter plate. Approximately 250 CFU per well of bacteria inoculum, in a volume of 100 μl in 2.8× Mueller-Hinton broth medium, was added to the rows […]. The same volume of broth medium without inoculum was added to column 12 in row A to H. The cultures were incubated at 37° C. for 48 hours in a humidified 5% CO2 atmosphere (incubator with open air valve and continuous ventilation). At the end of incubation, two days after inoculation, the bacterial growth was quantitated fluorometrically. Therefore Alamar Blue (10×) was added to all wells in a volume of 20 μl and plates were incubated for another 2 hours at […] The fluorescence was read in a computer-controlled fluorometer (Cytofluor, Biosearch) at an excitation wavelength of 530 nm and an emission wavelength of 590 nm (gain 30).

[4] = system: Streptococcus pyogens (ATCC8668); test: In-vitro anti-bacterial microtitre plate assay, IC90, S. pyogens; format: cell-based; settings: 90% inhibitory concentration for bacterial growth, resazurin fluorescence; for IC90: Streptococcus, ATCC8668, 24 h, read-out: IC90 values SPY 8668
Description: as §1

[5] = system: Mycobacterium tuberculosis (strain H37RV); test: In-vitro method for testing compounds against M. tuberculosis; format: cell-based; settings: 90% inhibitory concentration for bacterial growth, 7 days, Middlebrook broth, resazurin fluorescence; for IC90: Mycobacterium tuberculosis, H37RV, 168 h, read-out: IC90 values MTB 1 H37RV

SMILES | IC90 [1] [µg/mL] | melting point [°C] | IC90 [2] [µg/mL] | IC90 values SPN 1 6305 [1] [µg/mL] | IC90 values STA 1 B29213 [2] [µg/mL] | IC90 values MSM 1 ATCC607 (M. Smegmatis (ATCC607)) [µg/mL] | other results
C=Cc1ccc2nc(OC)c(C(c3ccc(Cl)cc3)C(O)(CCN(C)C)c3ccccc3)cc2c1 (single isomer, unassigned) [Compound 1] | 1.7 (≈ 3.49 µM) | 184 | 48.7 (≈ 100 µM) | – | – | – | –
C=Cc1ccc2nc(OC)c(C(c3ccc(Cl)cc3)C(O)(CCN(C)C)c3ccccc3)cc2c1 (single isomer, unassigned) [Compound 2] | – | 187 | – | 1.7 (≈ 3.49 µM) | 48.7 (≈ 100 µM) | – | IC90 [3]: 38.7 µg/mL (≈ 79.4 µM); IC90 (M. Smegmatis (ATCC607)): 1.4 µg/mL (≈ 2.87 µM); IC90 [4]: 1.22 µg/mL (≈ 2.5 µM)
COc1nc2ccc(/C=N/O)cc2cc1C(c1ccccc1)C(O)(CCCCN(C)C)c1ccccc1 (single isomer, unassigned) [Compound 3] | 49.8 (≈ 100 µM) | – | 7.9 (≈ 15.9 µM) | – | – | – | IC90 (M. Smegmatis (ATCC607)): 7.9 µg/mL (≈ 15.9 µM)
CO/N=C/c1ccc2nc(OC)c(C(c3ccccc3)C(O)(CCCCN(C)C)c3ccccc3)cc2c1 (single isomer, unassigned) [Compound 4] | 10.2 (≈ 19.9 µM) | – | 8.1 (≈ 15.8 µM) | – | – | – | IC90 (M. Smegmatis (ATCC607)): 1.6 µg/mL (≈ 3.13 µM)
C=Cc1ccc2nc(OC)c(C(c3ccccc3)C(O)(CCc3ccc(F)cc3)CCN(C)C)cc2c1 (single isomer, unassigned) [Compound 6] | 1.3 (≈ 2.61 µM) | 135 | 1.6 (≈ 3.21 µM) | – | – | 0.1 (≈ 0.201 µM) | –
C=Cc1ccc2nc(OC)c(C(c3ccccc3)C(O)(CCc3ccc(F)cc3)CCN(C)C)cc2c1 (single isomer, unassigned) [Compound 7] | – | 156 | – | 1.3 (≈ 2.61 µM) | 1.6 (≈ 3.21 µM) | 1.3 (≈ 2.61 µM) | –
C=Cc1ccc2nc(OC)c(C(c3ccccc3)C(O)(CCN(C)C)c3cccc4ccccc34)cc2c1 (single isomer, unassigned) [Compound 10] | – | – | 50.3 (≈ 100 µM) | 20.0 (≈ 39.8 µM) | – | – | IC90 (M. Smegmatis (ATCC607)): 8 µg/mL (≈ 15.9 µM)
C/C=C/c1ccc2nc(OC)c(C(c3ccccc3)C(O)(CCN(C)C)c3cccc4ccccc34)cc2c1 (single isomer, unassigned) [Compound 12] | – | 189 | 51.7 (≈ 100 µM) | 0.7 (≈ 1.35 µM) | – | 0.3 (≈ 0.581 µM) | IC90 [3]: 51.7 µg/mL (≈ 100 µM); IC90 [4]: 51.7 µg/mL (≈ 100 µM)
CC#Cc1ccc2nc(OC)c(C(c3ccccc3)C(O)(CCN(C)C)c3cccc4ccccc34)cc2c1 (single isomer, unassigned) [Compound 13] | – | 100 | 51.5 (≈ 100 µM) | 0.3 (≈ 0.583 µM) | – | 0.003 (≈ 0.00583 µM) | IC90 [3]: 51.5 µg/mL (≈ 100 µM); IC90 [4]: 51.5 µg/mL (≈ 100 µM)
CC#Cc1ccc2nc(OC)c(C(c3ccccc3)C(O)(CCN(C)C)c3cccc4ccccc34)cc2c1 (single isomer, unassigned) [Compound 14] | – | 202 | – | 1.5 (≈ 2.91 µM) | 45.9 (≈ 89.2 µM) | 0.3 (≈ 0.583 µM) | IC90 values EFA 29212 ([3]; 24 hours): 51.47 µg/mL (≈ 100 µM); IC90 values SPY 8668 ([4]; 24 hours): 40.88 µg/mL (≈ 79.4 µM)
COc1nc2ccc(N)cc2cc1C(c1ccccc1)C(O)(CCN(C)C)c1cccc2ccccc12 (single isomer, unassigned) [Compound 16] | – | – | – | 24.6 (≈ 50 µM) | 43.8 (≈ 89.1 µM) | 7.8 (≈ 15.9 µM) | IC90 values MTB 1 H37RV [5]: 31.0 µg/mL (≈ 63.1 µM)
COc1nc2ccc(CN)cc2cc1C(c1ccccc1)C(O)(CCN(C)C)c1cccc2ccccc12 (single isomer, unassigned) [Compound 17] | – | – | – | 8.0 (≈ 15.8 µM) | 8.0 (≈ 15.8 µM) | 0.4 (≈ 0.791 µM) | IC90 [5]: 3.6 µg/mL (≈ 7.12 µM)
COc1nc2ccc(CN)cc2cc1C(c1ccccc1)C(O)(CCN(C)C)c1cccc2ccccc12 (single isomer, unassigned) [Compound 20] | 8 (≈ 15.8 µM) | – | – | – | 35.8 (≈ 70.8 µM) | 40.2 (≈ 79.5 µM) | –
COc1nc2ccc(CN(C)C)cc2cc1C(c1ccccc1)C(O)(CCN(C)C)c1cccc2ccccc12 (single isomer, unassigned) [Compound 21] | 13.4 (≈ 25.1 µM) | – | 10.7 (≈ 20 µM) | – | – | 0.7 (≈ 1.31 µM) | –
COc1nc2ccc(CN(C)C)cc2cc1C(c1ccccc1)C(O)(CCN(C)C)c1cccc2ccccc12 (single isomer, unassigned) [Compound 22] | – | – | – | 21.3 (≈ 39.9 µM) | 9.5 (≈ 17.8 µM) | 18.9 (≈ 35.4 µM) | –
COc1nc2ccc(/C=N/O)cc2cc1C(c1ccccc1)C(O)(CCN(C)C)c1cccc2ccccc12 (single isomer, unassigned) [Compound 24] | – | 167 | 8.2 (≈ 15.8 µM) | 1.6 (≈ 3.08 µM) | – | 2.3 (≈ 4.43 µM) | –
COc1nc2ccc(C(=O)N(C)C)cc2cc1C(c1ccccc1)C(O)(CCN(C)C)c1cccc2ccccc12 (single isomer, unassigned) [Compound 28] | 10.9 (≈ 19.9 µM) | – | 43.5 (≈ 79.4 µM) | – | – | – | IC90 (M. Smegmatis (ATCC607)): 0.1 µg/mL (≈ 0.183 µM); IC90 [5]: 3.5 µg/mL (≈ 6.39 µM)
COc1nc2ccc(CN3CCN(C)CC3)cc2cc1C(c1ccccc1)C(O)(CCN(C)C)c1cccc2ccccc12 (single isomer, unassigned) [Compound 29] | 10.5 (≈ 17.8 µM) | – | 9.3 (≈ 15.8 µM) | – | – | – | IC90 (M. Smegmatis (ATCC607)): 2.6 µg/mL (≈ 4.42 µM)
COc1nc2ccc(/C=N/O)cc2cc1C(c1ccccc1)C(O)(CCCCN(C)C)c1ccc2ccccc2c1 (single isomer, unassigned) [Compound 32] | – | – | 1.7 (≈ 3.1 µM) | 10.9 (≈ 19.9 µM) | – | 7.7 (≈ 14.1 µM) | –
COc1nc2ccc(/C=N/O)cc2cc1C(c1ccccc1)C(O)(CCCCN(C)C)c1ccc2ccccc2c1 (single isomer, unassigned) [Compound 33] | – | 180 | – | 1.9 (≈ 3.47 µM) | 1.7 (≈ 3.1 µM) | 1.7 (≈ 3.1 µM) | –
C=Cc1ccc2nc(OC)c(C(c3ccccc3)C(O)(CCCCN3CCCCC3)c3ccccc3)cc2c1 (single isomer, unassigned) [Compound 34] | – | – | 1.7 (≈ 3.26 µM) | 2.1 (≈ 4.03 µM) | – | – | IC90 (M. Smegmatis (ATCC607)): 1.7 µg/mL (≈ 3.26 µM)
C=Cc1ccc2nc(OC)c(C(c3ccccc3)C(O)(CCCCN3CCCCC3)c3ccccc3)cc2c1 (single isomer, unassigned) [Compound 35] | – | – | – | 10.4 (≈ 20 µM) | 1.7 (≈ 3.26 µM) | 1.7 (≈ 3.26 µM) | –
COc1nc2ccc(C(=O)c3cccc(Br)c3)cc2cc1C(c1ccc(Cl)cc1)C(O)(CCN(C)C)c1ccccc1 (single isomer, unassigned) [Compound 40] | – | 185 | – | – | – | – | –
COc1nc2ccc(C(=O)c3cccc(Br)c3)cc2cc1C(c1ccccc1)C(O)(CCN(C)C)c1cccc2ccccc12 (stereo not drawn) [Compound 38] | – | 118 | – | – | – | – | –
